Measured values: patent US7759337B2, “Phthalazine compounds and methods of use” (Amgen Inc., priority 2005, dated 2010)
pIC50: −log10 of the molar value.

Test system: production of TNF by monocytes activated with bacterial lipopolysaccharide (LPS)
Test: Lipopolysaccharide-activated monocyte TNF production assay
Type: cell-based
Details: Homo sapiens; whole blood monocyte assay (LPS induced TNF release)
How it was run: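 Adherent human PBMC-derived monocytes preincubated 60 min with nine two-fold compound dilutions, then stimulated with E. coli K532 LPS (30 ng/mL in the added medium) for 4 h at 37 °C. Supernatant TNF measured by sandwich ELISA; IC50 is the compound concentration halving TNF production, from second-order polynomial fits.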

Row | Structure (SMILES) | pIC50
1 | Cc1cc(F)ccc1-c1nncc2cc(Oc3ccccc3)ccc12 [Example 347, 1-(4-fluoro-2-methylphenyl)-6-phenoxyphthalazine] | ≥ 5.30
2 | O=C(O)Cc1ccc(-c2nncc3cc(Oc4ccc(F)cc4)ccc23)cc1 [Example 348, {4-[6-(4-fluorophenoxy)phthalazin-1-yl]phenyl}acetic acid] | ≥ 5.30
3 | COc1ncccc1-c1nncc2cc(Oc3ccc(F)cc3)ccc12 [Example 349, 6-(4-fluorophenoxy)-1-(2-methoxypyridin-3-yl)phthalazine] | ≥ 5.30
4 | Fc1ccc(Oc2ccc3c(N4C[C@@H]5C[C@H]4CO5)nncc3c2)cc1 [Example 350, (1S,4S)-5-[6-(4-fluorophenoxy)phthalazin-1-yl]-2-oxa-5-azabicyclo[2.2.1]heptane] | ≥ 5.30
5 | Fc1ccc(Oc2ccc3c(-c4cncnc4)nncc3c2)cc1 [Example 351, 6-(4-fluorophenoxy)-1-pyrimidin-5-ylphthalazine] | ≥ 5.30
6 | Cc1ccccc1-c1nncc2cc(Oc3cccc(C(=O)NC4CC4)c3)ccc12 [Example 352, N-cyclopropyl-3-{[1-(2-methylphenyl)phthalazin-6-yl]oxy}benzamide] | ≥ 5.30
7 | CS(=O)(=O)N1CCN(c2nncc3cc(Oc4ccc(F)cc4)ccc23)CC1 [Example 353, 6-(4-fluorophenoxy)-1-[4-(methylsulfonyl)piperazin-1-yl]phthalazine] | ≥ 5.30
8 | Cc1ccccc1-c1nncc2cc(Oc3cccc(C(=O)O)c3)ccc12 [Example 354, 3-{[1-(2-methylphenyl)phthalazin-6-yl]oxy}benzoic acid] | ≥ 5.30
9 | Cc1ccccc1-c1nncc2cc(Oc3cccc(F)c3)ccc12 [Example 355, 6-(3-fluorophenoxy)-1-(2-methylphenyl)phthalazine] | ≥ 5.30
10 | Fc1ccc(Oc2ccc3c(N4CCOCC4)nncc3c2)c(F)c1 [Example 356, 6-(2,4-difluorophenoxy)-1-morpholin-4-ylphthalazine] | ≥ 5.30
11 | Cc1ccc(S(N)(=O)=O)cc1-c1ccc2c(NC(C)C)nncc2c1 [Example 357, 3-[1-(isopropylamino)phthalazin-6-yl]-4-methylbenzenesulfonamide] | ≥ 5.30
12 | CNS(=O)(=O)c1ccc(C)c(-c2ccc3c(NC(C)C)nncc3c2)c1 [Example 358, 3-[1-(isopropylamino)phthalazin-6-yl]-N,4-dimethylbenzenesulfonamide] | ≥ 5.30
13 | Cc1ccc(S(=O)(=O)NC2CC2)cc1-c1ccc2c(NC(C)C)nncc2c1 [Example 359, N-cyclopropyl-3-[1-(isopropylamino)phthalazin-6-yl]-4-methylbenzenesulfonamide] | ≥ 5.30
14 | Cc1ccc(S(=O)(=O)NC2CC2)cc1-c1ccc2c(N3CCOCC3)nncc2c1 [Example 360, N-cyclopropyl-4-methyl-3-(1-morpholin-4-ylphthalazin-6-yl)benzenesulfonamide] | ≥ 5.30
15 | CCNC(=O)c1ccc(C)c(-c2ccc3c(CC(C)C)nncc3c2)c1 [Example 361, N-ethyl-3-(1-isobutylphthalazin-6-yl)-4-methylbenzamide] | ≥ 5.30
16 | CCOC(=O)c1ccc(C)c(-c2ccc3c(C(C)C)nncc3c2)c1 [Example 362, ethyl 3-(1-isopropylphthalazin-6-yl)-4-methylbenzoate] | ≥ 5.30
17 | CCNC(=O)c1ccc(C)c(-c2ccc3c(C(C)C)nncc3c2)c1 [Example 363, N-ethyl-3-(1-isopropylphthalazin-6-yl)-4-methylbenzamide] | ≥ 5.30
18 | Cc1cc(S(N)(=O)=O)ccc1-c1nncc2cc(Oc3ccc(F)cc3)ccc12 [Example 364, 4-[6-(4-fluorophenoxy)phthalazin-1-yl]-3-methylbenzenesulfonamide] | ≥ 5.30
19 | CC[C@H](C)Nc1nncc2cc(-c3c(C)ccc4c(NC)noc34)ccc12 [Example 365, 6-[6-methyl-3-(methylamino)-1,2-benzisoxazol-7-yl]-N-[(1S)-1-methylpropyl]phthalazin-1-amine] | ≥ 5.30
20 | CC[C@@H](C)Nc1nncc2cc(-c3c(C)ccc4c(NC)noc34)ccc12 [Example 366, 6-[6-methyl-3-(methylamino)-1,2-benzisoxazol-7-yl]-N-[(1R)-1-methylpropyl]phthalazin-1-amine] | ≥ 5.30
21 | Cc1ccc2c(N)nsc2c1-c1ccc2c(N3CCOC[C@@H]3C)nncc2c1 [Example 367, 6-methyl-7-{1-[(3S)-3-methylmorpholin-4-yl]phthalazin-6-yl}-1,2-benzisothiazol-3-amine] | ≥ 5.30
22 | Cc1ccc(C(N)=O)cc1-c1ccc2c(N3C[C@H](C)N(CC(F)(F)F)C[C@H]3C)nncc2c1 [Example 368, 3-{1-[(2R,5S)-2,5-dimethyl-4-(2,2,2-trifluoroethyl)piperazin-1-yl]phthalazin-6-yl}-4-methylbenzamide] | ≥ 5.30

Row | Structure (SMILES) | pIC50
23 | Cc1ccc(C(=O)NC2CC2)cc1-c1ccc2c(NC(C)c3ccccn3)nncc2c1 (stereo not shown) [Example 369, N-cyclopropyl-4-methyl-3-{1-[(1-pyridin-2-ylethyl)amino]phthalazin-6-yl}benzamide] | ≥ 5.30
24 | Cc1ccc2c(NC3CC3)noc2c1-c1ccc2c(NC(C)C)nncc2c1 [Example 370, 6-[3-(cyclopropylamino)-6-methyl-1,2-benzisoxazol-7-yl]-N-isopropylphthalazin-1-amine] | ≥ 5.30
25 | CC(=O)N1CCN(c2nncc3cc(-c4cc(C(=O)NC5CC5)ccc4C)ccc23)[C@@H](C)C1 [Example 371, 3-{1-[(2S)-4-acetyl-2-methylpiperazin-1-yl]phthalazin-6-yl}-N-cyclopropyl-4-methylbenzamide] | ≥ 5.30
26 | CNc1noc2c(-c3ccc4c(NC(C)C)nncc4c3)c(C)ccc12 [Example 372, N-isopropyl-6-[6-methyl-3-(methylamino)-1,2-benzisoxazol-7-yl]phthalazin-1-amine] | ≥ 5.30
27 | CNc1noc2c(-c3ccc4c(N5CCOC[C@H]5C)nncc4c3)c(C)ccc12 [Example 373, N,6-dimethyl-7-{1-[(3R)-3-methylmorpholin-4-yl]phthalazin-6-yl}-1,2-benzisoxazol-3-amine] | ≥ 5.30
28 | Cc1ccccc1-c1nncc2cc(-c3c(C)ccc4c(NC5CC5)noc34)ccc12 [Example 374, N-cyclopropyl-6-methyl-7-[1-(2-methylphenyl)phthalazin-6-yl]-1,2-benzisoxazol-3-amine] | ≥ 5.30
29 | COc1ncccc1-c1ccc2c(-c3cccnc3OC)nncc2c1 [Example 375, 1,6-bis(2-methoxypyridin-3-yl)phthalazine] | ≥ 5.30
30 | Cc1ccc(C(=O)NC2CC2)cc1-c1ccc2c(N3C[C@H](C)N(CC(F)(F)F)C[C@H]3C)nncc2c1 [Example 376, N-cyclopropyl-3-{1-[(2R,5S)-2,5-dimethyl-4-(2,2,2-trifluoroethyl)piperazin-1-yl]phthalazin-6-yl}-4-methylbenzamide] | ≥ 5.30
31 | Cc1cc(F)ccc1-c1nncc2cc(-c3c(C)ccc4c(NC5CC5)noc34)ccc12 [Example 377, N-cyclopropyl-7-[1-(4-fluoro-2-methylphenyl)phthalazin-6-yl]-6-methyl-1,2-benzisoxazol-3-amine] | ≥ 5.30
32 | Cc1ccccc1-c1nncc2cc(-c3c(C)ccc(C(=N)NC4CC4)c3O)ccc12 [Example 378, N-cyclopropyl-2-hydroxy-4-methyl-3-[1-(2-methylphenyl)phthalazin-6-yl]benzenecarboximidamide] | ≥ 5.30
33 | CCOC(=O)N1CCN(c2nncc3cc(-c4cc(C(=O)NC5CC5)ccc4C)ccc23)[C@@H](C)C1 [Example 379, ethyl(3S)-4-(6-{5-[(cyclopropylamino)carbonyl]-2-methylphenyl}phthalazin-1-yl)-3-methylpiperazine-1-carboxylate] | ≥ 5.30
34 | Cc1cc(NC(=O)c2ccc(C)c(-c3ccc4c(N5CCOCC5)nncc4c3)c2)no1 [Example 380, 4-methyl-N-(5-methylisoxazol-3-yl)-3-(1-morpholin-4-ylphthalazin-6-yl)benzamide] | ≥ 5.30
35 | Cc1ccc2c(NC(C)(C)C)noc2c1-c1ccc2c(N3CCOC[C@@H]3C)nncc2c1 [Example 381, N-(tert-butyl)-6-methyl-7-{1-[(3S)-3-methylmorpholin-4-yl]phthalazin-6-yl}-1,2-benzisoxazol-3-amine] | ≥ 5.30
36 | Cc1cc(F)ccc1-c1nncc2cc(-c3ccc(Cl)c4c(NC5CC5)noc34)ccc12 [Example 382, 4-chloro-N-cyclopropyl-7-[1-(4-fluoro-2-methylphenyl)phthalazin-6-yl]-1,2-benzisoxazol-3-amine] | ≥ 5.30
37 | CC(=O)N1CCN(c2nncc3cc(-c4cc(C(N)=O)ccc4C)ccc23)[C@@H](C)C1 [Example 383, 3-{1-[(2S)-4-acetyl-2-methylpiperazin-1-yl]phthalazin-6-yl}-4-methylbenzamide] | ≥ 5.30
38 | CCNc1noc2c(-c3ccc4c(N5CCOC[C@@H]5C)nncc4c3)c(C)ccc12 [Example 384, N-ethyl-6-methyl-7-{1-[(3S)-3-methylmorpholin-4-yl]phthalazin-6-yl}-1,2-benzisoxazol-3-amine] | ≥ 5.30
39 | Cc1ccc2c(N)noc2c1-c1ccc2c(NC(C)C)nncc2c1 [Example 385, 6-(3-amino-6-methyl-1,2-benzisoxazol-7-yl)-N-isopropylphthalazin-1-amine] | ≥ 5.30
40 | Cc1ccccc1-c1ccc2c(-c3ccccc3C)nncc2c1 [Example 386, 1,6-bis(2-methylphenyl)phthalazine] | ≥ 5.30
41 | Cc1ccc2c(N)noc2c1-c1ccc2c(N3CCOC[C@@H]3C)nncc2c1 [Example 387, 6-methyl-7-{1-[(3S)-3-methylmorpholin-4-yl]phthalazin-6-yl}-1,2-benzisoxazol-3-amine] | ≥ 5.30
42 | Cc1ccc2c(NC3CC3)noc2c1-c1ccc2c(N3CCOCC3)nncc2c1 [Example 388, N-cyclopropyl-6-methyl-7-(1-morpholin-4-ylphthalazin-6-yl)-1,2-benzisoxazol-3-amine] | ≥ 5.30
43 | CCNc1noc2c(-c3ccc4c(NC(C)C)nncc4c3)c(C)ccc12 [Example 389, 6-[3-(ethylamino)-6-methyl-1,2-benzisoxazol-7-yl]-N-isopropylphthalazin-1-amine] | ≥ 5.30
